Test results reported in patent publication US9765308B2, “Aromatic prenyltransferase from cannabis” (priority 2009, dated 2017).

Legend:
CsPT1 [1] = target: T1, CsPT1 (Cannabis sativa, UniProt A0A455ZIK6); experiment: Prenyltransferase assay of recombinant CsPT1 with different aromatic acceptor substrates, geranyl diphosphate as prenyl donor; type: biochemical; conditions: for Product yield (%): yield of prenylated products by HPLC peak area, yield of cannabigerolic acid and 5-geranyl olivetolic acid set to 100%
Protocol: (§1) The prenyltransferase assay for CsPT1 comprised 100 mM Tris-HCl (pH 7.5), 0.2 mM olivetolic acid, 1 mM geranyl diphosphate and 5 mM MgCl2 in a final volume 100 μl. The reaction was initiated by addition of a 5 μl aliquot of microsomal preparation (64 μg protein), either from insect cells or yeast. After incubation for 1 h at 37° C., the reaction was terminated by addition of 10 μl 6 N HCl and extracted twice with 200 μl of ethyl acetate. The organic phase was evaporated to dryness and the residue dissolved in 50 μl of methanol. A 20 μl aliquot was analyzed by HPLC using a Waters 2695 system equipped with photodiode array detector on a Sunfire C18 reversed phase column 3.5 μm (4.6×150 mm) at a column temperature of 30° C. The mobile phase at 1 ml/min consisted of 50% water (containing 0.1% trifluoroacetic acid [TFA] [v/v]) and 50% acetonitrile over 10 min, 50% to 100% acetonitrile over 10 min, 100% acetonitrile to 50% acetonitrile over 1 min, 50% acetonitrile and 50% water over 4 min. The products were detected at 270 nm with photodiode array detection.
The activity of the recombinant CsPT1 was assayed to determine its use of different aromatic acceptor substrates using geranyl diphosphate as the prenyl donor substrate. […] In Table 3, Product yield is the yield of prenylated products as measured by HPLC peak area with the yield of cannabigerolic acid and 5-geranyl olivetolic acid set to 100%. Phlorisovalerophenone has not been detected in cannabis. It has been shown that cannabinoids with short side-chains exist in cannabis (e.g. tetrahydrocannabivarinic acid having a propyl side-chain instead of the pentyl side-chain of THC acid (Shoyama 1984). Given that CsPT1 accepts a variety of aromatic acceptor substrates, this enzyme likely is able to prenylate analogs of olivetolic acid that have differing side-chain length.

CsPT1 [2] = target: T1, CsPT1; experiment: Prenyltransferase assay of recombinant CsPT1 with different prenyl diphosphate donor substrates; type: biochemical; conditions: FIG. 6; n=3
Protocol: FIG. 6 depicts use of different prenyl diphosphate donor substrates by recombinant CsPT1, where DMAPP is dimethylally diphosphate, IPP is isopenetnyl diphosphate, GPP is geranyl diphosphate, NPP is neryl diphosphate, FPP is farnesyl diphosphate, and GGPP is geranylgeranyl diphosphate. Bar represents mean+/− standard deviation (n=3).
as §1, with “detection. […]” for “detection.”

O=C(/C=C/c1ccc(O)cc1)c1c(O)cc(O)cc1O [Chalconaringenin]
Product yield (%) (CsPT1 [1]): 0%

COc1cc(-c2cc(=O)c3c(O)cc(O)cc3o2)ccc1O [Chrysoeriol]
Product yield (%) (CsPT1 [1]): 0%

CCCCCC(=O)Cc1cc(O)cc(=O)o1 [Hexanoyl triacetic acid lactone]
Product yield (%) (CsPT1 [1]): 0%

O=C(O)Cc1cc(O)ccc1O [Homogentisic acid]
Product yield (%) (CsPT1 [1]): 0%

O=c1cc(-c2ccc(O)c(O)c2)oc2cc(O)cc(O)c12 [Luteolin]
Product yield (%) (CsPT1 [1]): 0%

O=C1C[C@@H](c2ccc(O)cc2)Oc2cc(O)cc(O)c21 [Naringenin]
Geranylation of aromatic acceptor substrate by CsPT1 (CsPT1 [1]): geranylated
Product yield (%) (CsPT1 [1]): 31%

CCCCCc1cc(O)cc(O)c1 [Olivetol]
Geranylation of aromatic acceptor substrate by CsPT1 (CsPT1 [1]): geranylated
Product yield (%) (CsPT1 [1]): 30%

CCCCCc1cc(O)cc(O)c1C(=O)O [Olivetolic acid]
Geranylation of aromatic acceptor substrate by CsPT1 (CsPT1 [1]): geranylated
Product yield (%) (CsPT1 [1]): 100%

CC(C)CC(=O)c1c(O)cc(O)cc1O [Phlorisovalerophenone]
Geranylation of aromatic acceptor substrate by CsPT1 (CsPT1 [1]): geranylated
Product yield (%) (CsPT1 [1]): 250%

Oc1cc(O)cc(O)c1 [Phloroglucinol]
Product yield (%) (CsPT1 [1]): 0%

Oc1ccc(C=Cc2cc(O)cc(O)c2)cc1 [Resveratrol]
Geranylation of aromatic acceptor substrate by CsPT1 (CsPT1 [1]): geranylated
Product yield (%) (CsPT1 [1]): 32%

CC(C)=CCC/C(C)=C/COP(=O)(O)OP(=O)(O)O [geranyl diphosphate]
Use as prenyl donor substrate (CsPT1 [2]): only used geranyl diphosphate (GPP) as a prenyl donor
